From publication PMC5118228 (EJNMMI Research, 2016)

Columns and labels:
nontumor-bearing mice = assay type: in vivo; details: control, 4 × 0.3 nmol unlabeled DOTATATE; nontumor-bearing mice; n=8
Protocol: MTD was defined as the highest dose given to the animals allowing 100% survival with no significant weight loss >15% throughout the experiment. Nontumor-bearing mice were randomly divided into seven cohorts used to evaluate MTD, six treatments and one control (n = 8/cohort); see Table 1. […] Control mice received DOTATATE (4 × 0.3 nmol) on four consecutive days. The animals were followed for 90 days. Serum was analyzed for the biomarker neutrophil gelatinase-associated lipocalin (NGAL) using ELISA (R&D Systems, 450 nm).

patients = details: in vivo; cited from earlier work
From the text: Radiolabeled somatostatin analogs are known to accumulate in the renal proximal tubules, due to their net charge, electrostatic forces, and charge distribution from metal-chelation. This can result in a high absorbed dose and subsequent renal dysfunction.

SMILES	survival at 90 days post-treatment (nontumor-bearing mice)	reduction of renal uptake by co-infusion of L-lysine/L-arginine (patients)
C[C@@H](O)[C@H](NC(=O)[C@@H]1CSSC[C@H](NC(=O)[C@@H](Cc2ccccc2)NC(=O)CN2CCN(CC(=O)O)CCN(CC(=O)O)CCN(CC(=O)O)CC2)C(=O)N[C@@H](Cc2ccc(O)cc2)C(=O)N[C@H](Cc2c[nH]c3ccccc23)C(=O)N[C@@H](CCCCN)C(=O)N[C@@H]([C@@H](C)O)C(=O)N1)C(=O)O [DOTATATE]	all control animals survived	–
C[C@@H](O)[C@H](NC(=O)[C@@H]1CSSC[C@H](NC(=O)[C@@H](Cc2ccccc2)NC(=O)CN2CCN(CC(=O)[O-])CCN(CC(=O)[O-])CCN(CC(=O)[O-])CC2)C(=O)N[C@@H](Cc2ccc(O)cc2)C(=O)N[C@H](Cc2c[nH]c3ccccc23)C(=O)N[C@@H](CCCCN)C(=O)N[C@@H]([C@@H](C)O)C(=O)N1)C(=O)O.[177Lu+3] [^177Lu-DOTATATE, ^177Lu-[DOTA^0,Tyr^3]octreotate]	–	30–50%
